Assay results reported in US10537525B2, “Methods and materials for delivering agents to liver tissue” (Mayo Foundation for Medical Education and Research, priority 2015, dated 2020).

Experiments:
[1] = Endoscopic ultrasound-guided portal vein injection of irinotecan loaded microbeads vs jugular vein irinotecan: plasma and tissue concentrations (LC/MS); assay type: in vivo, pigs; details: control: unloaded irinotecan 100 mg into jugular vein; for concentration at 1 h: pig, intravenous
Method: Irinotecan and SN-38 (active metabolite) concentrations were determined using LC/MS.

in vivo [2] = details: male, pig, intravenous, 50 mg
Method: The aim was to determine 7-day safety, toxicity, and drug levels in the survival porcine model of endoscopic ultrasound-guided injections using irinotecan and doxorubicin loaded onto microbeads, as compared with systemic injection.
Sixteen anesthetized 35 kg male pigs were treated with 50 mg of either irinotecan (n=8) or doxorubicin (n=8). […] Within each drug group, half (n=4) were treated with endoscopic ultrasound-guided injections using 75-150 micron LC Beads (Biocompatibles) or endoscopic ultrasound-guided injection of drug not loaded onto microbeads into the IVC, using 22g endoscopic ultrasound needles via a transgastric approach. Each animal received only one drug by one route. Animals were observed twice daily for 7 days for clinical signs of toxicity. Whole blood for cell counts and plasma chemistries were obtained at baseline and at 7 days. […] 7 day drug levels were measured by LC-mass spectometry on plasma, bone marrow, liver and heart.

[3] = control: unloaded doxorubicin 100 mg into jugular vein; plasma every 15 min for one hour
Method: (§1) The following was performed to assess the use of endoscopic ultrasound-guided portal vein injection of doxorubicin loaded microbeads to achieve increased intrahepatic concentrations of doxorubicin while decreasing systemic doxorubicin exposure.
(§2) Endoscopic ultrasound-guided portal vein injections were administered to 8 anesthetized 35 kg pigs transgastrically using a linear array echoendoscope and a 22 gauge fine-needle aspiration needle. Briefly, an Olympus linear array echoendoscope was inserted perorally to the stomach. The portal vein was identified by location, appearance, and pulse-wave Dopper signature. A 22 gauge fine-needle aspiration needle (Cook Medical) was advanced transgastrically into the portal vein.
(§3) In 4 animals, doxorubicin (100 mg) loaded onto 75-150 micron LC Beads® (Biocompatibles UK LTD) was injected. In 4 animals, saline was injected into the portal vein, and unloaded doxorubicin (100 mg) was injected into the jugular vein. Plasma was collected at baseline and every 15 minutes for one hour. At 1 hour, laparotomy was performed, and liver and heart samples were obtained and frozen. Bone marrow aspirates were obtained at one hour from the right anterior tibia. Doxorubicin concentrations were determined using LC/MS.

in vivo [4] = details: pig, intravenous, 100 mg
Method: as §1, §2, §3

[5] = 50 mg, either group (microbeads portal vein or unloaded drug into IVC)

Structure (SMILES) | Irinotecan level, Peak Plasma ([1]; plasma every 15 min for one hour) | concentration at 1 h ([1]; bone marrow, at one hour, read-out: Irinotecan level, Bone Marrow) | concentration at 1 h ([1]; skeletal muscle at 1 hour, read-out: Irinotecan level, Muscle) | concentration at 1 h ([1]; liver, at 1 hour, read-out: Irinotecan level, Liver) | irinotecan level at 7 days (50 mg, any samples (plasma, bone marrow, liver, heart), microbeads portal vein or unloaded drug into IVC) | SN-38 (active metabolite of irinotecan) level at 7 days (irinotecan 50 mg, any samples (plasma, bone marrow, liver, heart), microbeads portal vein or unloaded drug into IVC) | concentration at 7 days (in vivo [2]; heart) | concentration at 7 days (in vivo [2]; liver) | doxorubicin level in bone marrow at 7 days [5] | doxorubicin level in plasma at 7 days [5] | Doxorubicin level, Peak Plasma [3] | concentration at 1 h (in vivo [4]; bone marrow) | concentration at 1 h (in vivo [4]; heart) | concentration at 1 h (in vivo [4]; liver)
CCc1c2c(nc3ccc(OC(=O)N4CCC(N5CCCCC5)CC4)cc13)-c1cc3c(c(=O)n1C2)COC(=O)[C@]3(O)CC [Irinotecan, (S)-4,11-diethyl-3,4,12,14-tetrahydro-4-hydroxy-3,14-dioxo1H-pyrano[3′,4′:6,7]-indolizino[1,2-b]quinolin-9-yl-[1,4′bipiperidine]-1′-carboxylate] | 2762 ng/mL | 1700 ng/mL | 1060 ng/g | 3690 ng/g | no detectable | no detectable | – | – | – | – | – | – | – | –
COc1cccc2c1C(=O)c1c(O)c3c(c(O)c1C2=O)C[C@@](O)(C(=O)CO)C[C@@H]3O[C@H]1C[C@H](N)[C@H](O)[C@H](C)O1 [doxorubicin, (7S,9S)-7-[(2R,4S,5S,6S)-4-amino-5-hydroxy-6-methyloxan-2-yl]oxy-6,9,11-trihydroxy-9-(2-hydroxyacetyl)-4-methoxy-8,10-dihydro-7H-tetracene-5,12-dione] | – | – | – | – | – | – | 138 ng/g | 151 ng/g | no drug was detected | no drug was detected | 2041 ng/mL | 25 ng/mL | 4800 ng/g | 6930 ng/g
